# In patent publication US20240142458A1, “FLUORESCENT PROBES FOR QUANTIFICATION OF FREE COPPER” (TECHNISCHE UNIVERSITÄT BERLIN, priority 2020, published 2024):
# Tests used:
# [1] = Metal-dependent changes of absorbance and fluorescence properties, cell-free; settings: isopropyl diester, phosphonate blocked for metal binding
# Experimental: FIG. 1: Metal-dependent changes of p-H8TPPA absorbance and fluorescence properties. • 10 μM p-H8TPPA dilutions were treated with various metal solutions (final concentration 40 μM) before recording (A) absorbance, (B) fluorescence excitation (⋅Em.650 nm) and (C) fluorescence emission (⋅⋅Exc.415 nm) spectra. Data are representative for three independent experiments.
# FIG. 3: Metal-dependent changes of m-H8TPPA absorbance and fluorescence properties. • 10 μM m-H8TPPA dilutions were treated with various metal solutions (final concentration 40 μM) before recording (A) absorbance, (B) fluorescence excitation (⋅Em.650 nm) and (C) fluorescence emission (⋅⋅Exc.415 nm) spectra. Data are representative for three independent experiments.
# Aiming to use arylphosphonate-tethered porphyrins as real-time cellular metal fluorescence sensors, we first characterized their metal-responsiveness under cell-free conditions. p-H8TPPA (see FIG. 1) and m-H8TPPA (see FIG. 3), were pretreated with various bivalent metal ions at a pH close to the cellular milieu (pH 7.4) before recording absorption and fluorescence spectra. […] Following Co^2+ treatment absorption spectra were less intense, plateau-shaped with a bathochromic broadening up to 434 nm. Hg^2+-treatment red-shifted the Soret band by approximately 30 nm. […] Despite of their restricted fluorescence intensity, the fluorescence emission patterns of all the aforementioned metal-treated arylphosphonate-tethered porphyrins seemed to be […] almost indistinguishable from the buffer-controls (see FIG. 1C, FIGS. 2 and 4). Zn^2+ treatment led to a declined and much more broadened Soret band in the range of 380-430 nm (see FIG. 1A). […] Thus, we assume a fluorescence quenching effect of Zn^2+ that requires further investigation.
# Absorption spectra were recorded with a Tecan Infinite M200 Reader (Tecan Austria GmbH, Grödig/Salzburg, Switzerland) from 350 to 500 nm. The same device was used in fluorescence mode to measure fluorescence excitation ([…]; ⋅⋅Em. 650 nm) and fluorescence emission (550-850 nm; ⋅⋅Exc. 415 nm) spectra. 3D scanning was performed on a Spark® multimode microplate reader (Tecan Austria GmbH, Grodig/Salzburg, Switzerland) from 350 to 450 nm (Exc.) and 555 to 850 nm (Em.) with a 5 nm step size, excitation and emission bandwidths of 5 nm, and a detector gain of 100. A typical reaction mix was made by combining equal volumes of 20 μM phosphonate porphyrins diluted in assay-buffer (50 mM HEPES in bidistilled water adjusted to […] with sodium hydroxide solution; depleted of multivalent cations with Chelex® 100 Resin pretreatment^51) and a double-concentrated metal cation solution. Following 30 min incubations at 37° C. absorption or fluorescence measurements were done. For redox conversion tests the CuSO4 solutions were pretreated with 500 μM of L-ascorbic acid before admixing into the phosphonate porphyrin dilutions. To evaluate the effect of metal chelators, the metal cation-treated incubation mixtures were posttreated with 50 equivalents of EDTA or EGTA for 15 min before fluorescence emission readout.
# [2] = tested on: Caco-2 cells; experiment: Fluorescence labeling of Caco-2 enterocytes (emission spectra, confocal imaging); assay type: cell-based, human
# Experimental: FIG. 2: Caco-2 fluorescence labeling with Phenylphosphonate-substituted porphyrines. • Caco-2 cells were incubated with increasing concentrations of p-H8TPPA or m-H8TPPA followed by fluorescence measurement (⋅Exc/Em.416 nm/650 nm). Data are means±S.E.M. of n=3 independent experiments.
# FIG. 5: Fluorescence labeling of Caco-2 enterocytes by phenylphosphonate-substituted porphyrines. • Fluorescence emission spectra of Caco-2 cells exposed to p-H8TPPA, m-H8TPPA (A) or the isopropyl-modified phosphonate p-H8TPPA-iPr8 (C) in comparison with each of the phenylphosphonate porphyrins as 10 μM dilution in assay buffer (⋅Exc416 nm). (B) Confocal images of Caco-2 upon loading with p-H8TPPA or m-H8TPPA. (D) Confocal images of p-H8TPPA-iPr8 in the presence or absence of Caco-2 cells. Scale bar=10 μm. Data are representative for three independent experiments.
# The human intestinal cell line Caco-2 (European Collection of Cell Cultures, Porton Down, UK) were routinely cultured at 37° C., 5% CO2 and humidified atmosphere in Dulbecco's Modified Eagles Medium (DMEM), containing 10% fetal calf serum (FCS) 100 U/mL penicillin and 100 μg/ml streptomycin. For cellular phosphonate porphyrins experiments, Caco-2 cells were transferred into 96 wells (initially seeding 5000 cells per well) and cultured for 14 days for differentiation into an enterocyte-like monolayer^53,54. For phosphonate labeling, differentiated cells were treated with either m-H8TPPA, p-H8TPPA or p-H8TPPA-iPr8 in a HEPES-based incubation buffer (10 mM HEPES, pH 7.35, 120 mM NaCl, 5.4 mM KCl, 5 mM glucose, 1.3 mM CaCl2, 1 mM MgCl2, 1 mM NaH2PO4, 0.3% bovine serum albumin) for […] Excess fluorescent dye was removed by multiple washing steps before fluorescence emission scanning using 416 nm excitation (Tecan Infinite M200 reader; Tecan, Grödig/Salzburg, […]). To analyze metal responsiveness of the intracellular phosphonate porphyrins, cells were post-treated with 50 μM of different metal solutions at 37° C. in an albumin-free incubation buffer in a time-course experiment.
# Fluorescence images of phosphonate porphyrin-labeled Caco-2 enterocytes were acquired on a Leica TCS SP8 laser scanning confocal microscope equipped with LAS X 3.5.5.19976 software platform, using a HC PL APO CS2 63×/1.20 water objective. The filters settings were[…]Exc488 nm/[…]Em580 nm; pinhole 111.5 μm, pinhole size 1 AU.
# [3] = Solubility in aqueous media with detergent pluronic; assay type: physicochemical; settings: pluronic F-127
compound,measurement,setting,value
"CC(C)OP(=O)(OC(C)C)c1ccc(-c2c3nc(c(-c4ccc(P(=O)(OC(C)C)OC(C)C)cc4)c4ccc([nH]4)c(-c4ccc(P(=O)(OC(C)C)OC(C)C)cc4)c4nc(c(-c5ccc(P(=O)(OC(C)C)OC(C)C)cc5)c5ccc2[nH]5)C=C4)C=C3)cc1 [p-H8TPPA-iPr8, 5,10,15,20-tetrakis[p-(diisopropoxyphosphoryl)phenyl] porphyrin]",fluorescence change upon metal binding,[1],no fluorescence change
same,passage of the cellular membrane / cellular uptake,"[2]; Caco-2 cells, fluorescence spectra and confocal imaging",inaccessible for cellular uptake
same,microcrystal size in confocal microscopy pictures,"[2]; incubation buffer, with or without Caco-2 cells",~20 μm
same,effect of detergent pluronic on solubility in aqueous media,[3],did not improve the solubility
